From ChEMBL document CHEMBL3112449, “Identification of a selective inhibitor of murine intestinal alkaline phosphatase (ML260) by concurrent ultra-high throughput screening against human and mouse isozymes” (Bioorg Med Chem Lett, 2014)
Calls of active or inactive are those of the source. No cut-off for these calls is given here.

Tests used:
[1] = biological target: T1, Alkaline phosphatase, tissue-nonspecific isozyme (Homo sapiens, UniProt P05186); test: Inhibition of FLAG-tagged TNAP (unknown origin) expressed in African green monkey COS1 cells after 30 mins by chemiluminescence assay; assay type: cell-based, COS-1
T1 sequence (P05186 whole entry): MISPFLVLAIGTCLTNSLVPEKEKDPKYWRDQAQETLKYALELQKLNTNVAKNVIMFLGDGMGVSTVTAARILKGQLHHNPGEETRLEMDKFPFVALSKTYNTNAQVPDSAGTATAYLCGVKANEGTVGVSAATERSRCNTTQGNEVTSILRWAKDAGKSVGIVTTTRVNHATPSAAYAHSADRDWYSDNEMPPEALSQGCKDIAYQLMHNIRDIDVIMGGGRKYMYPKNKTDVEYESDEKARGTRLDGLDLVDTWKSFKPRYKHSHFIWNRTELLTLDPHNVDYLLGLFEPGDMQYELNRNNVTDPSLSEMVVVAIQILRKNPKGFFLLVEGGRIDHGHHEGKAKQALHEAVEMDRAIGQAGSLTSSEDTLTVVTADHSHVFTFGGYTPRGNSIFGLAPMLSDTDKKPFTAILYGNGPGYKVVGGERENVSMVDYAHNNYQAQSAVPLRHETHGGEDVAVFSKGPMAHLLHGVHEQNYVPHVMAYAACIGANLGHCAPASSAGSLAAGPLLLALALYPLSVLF

[2] = biological target: Alkaline phosphatase, placental type (Homo sapiens, UniProt P05187); test: Inhibition of FLAG-tagged PLAP (unknown origin) expressed in African green monkey COS1 cells after 30 mins by chemiluminescence assay; assay type: cell-based, COS-1
Sequence of Alkaline phosphatase, placental type (P05187 whole entry): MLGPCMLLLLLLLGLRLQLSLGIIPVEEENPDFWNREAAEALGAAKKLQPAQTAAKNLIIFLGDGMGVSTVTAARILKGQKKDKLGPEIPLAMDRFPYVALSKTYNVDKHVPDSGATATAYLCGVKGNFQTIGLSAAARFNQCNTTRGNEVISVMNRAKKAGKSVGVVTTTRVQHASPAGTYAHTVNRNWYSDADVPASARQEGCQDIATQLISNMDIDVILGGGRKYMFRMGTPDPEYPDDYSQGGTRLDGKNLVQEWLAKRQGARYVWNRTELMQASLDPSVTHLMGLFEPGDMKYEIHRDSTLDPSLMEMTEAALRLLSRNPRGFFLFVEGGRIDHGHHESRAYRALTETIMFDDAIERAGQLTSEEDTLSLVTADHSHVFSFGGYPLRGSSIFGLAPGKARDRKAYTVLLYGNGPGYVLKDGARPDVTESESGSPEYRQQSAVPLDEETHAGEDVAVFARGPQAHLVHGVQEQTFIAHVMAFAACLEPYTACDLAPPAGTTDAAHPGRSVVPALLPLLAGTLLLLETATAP

[3] = biological target: T2, Intestinal-type alkaline phosphatase (Mus musculus, UniProt P24822); test: Inhibition of mouse duodenal-specific FLAG-tagged IAP expressed in African green monkey COS1 cells after 30 mins by chemiluminescence assay; assay type: cell-based, COS-1
T2 sequence (P24822 whole entry): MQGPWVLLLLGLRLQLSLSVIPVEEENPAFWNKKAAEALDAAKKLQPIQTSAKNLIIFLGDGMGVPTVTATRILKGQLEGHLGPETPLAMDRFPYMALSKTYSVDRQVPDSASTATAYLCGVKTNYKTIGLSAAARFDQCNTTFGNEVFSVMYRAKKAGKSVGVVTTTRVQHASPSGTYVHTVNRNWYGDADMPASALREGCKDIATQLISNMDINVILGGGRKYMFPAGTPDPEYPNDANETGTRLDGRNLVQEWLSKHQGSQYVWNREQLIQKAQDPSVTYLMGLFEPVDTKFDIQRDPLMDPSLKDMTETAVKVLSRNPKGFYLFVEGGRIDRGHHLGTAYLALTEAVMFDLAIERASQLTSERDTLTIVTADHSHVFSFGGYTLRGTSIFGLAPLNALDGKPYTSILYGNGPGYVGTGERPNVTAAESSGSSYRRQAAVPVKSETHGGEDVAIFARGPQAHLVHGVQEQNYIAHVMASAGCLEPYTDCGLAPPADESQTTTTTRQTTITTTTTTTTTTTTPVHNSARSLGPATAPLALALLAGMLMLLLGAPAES

[4] = biological target: T2, Intestinal-type alkaline phosphatase; test: Inhibition of mouse duodenal-specific FLAG-tagged IAP expressed in African green monkey COS1 cells using p-nitrophenyl phosphate as substrate after 30 mins by chemiluminescence assay
[5] = biological target: T3, Intestinal-type alkaline phosphatase (Homo sapiens, UniProt P09923); test: Inhibition of human FLAG-tagged IAP expressed in African green monkey COS1 cells using p-nitrophenyl phosphate as substrate after 30 mins by chemiluminescence assay; assay type: cell-based, COS-1
T3 sequence (P09923 whole entry): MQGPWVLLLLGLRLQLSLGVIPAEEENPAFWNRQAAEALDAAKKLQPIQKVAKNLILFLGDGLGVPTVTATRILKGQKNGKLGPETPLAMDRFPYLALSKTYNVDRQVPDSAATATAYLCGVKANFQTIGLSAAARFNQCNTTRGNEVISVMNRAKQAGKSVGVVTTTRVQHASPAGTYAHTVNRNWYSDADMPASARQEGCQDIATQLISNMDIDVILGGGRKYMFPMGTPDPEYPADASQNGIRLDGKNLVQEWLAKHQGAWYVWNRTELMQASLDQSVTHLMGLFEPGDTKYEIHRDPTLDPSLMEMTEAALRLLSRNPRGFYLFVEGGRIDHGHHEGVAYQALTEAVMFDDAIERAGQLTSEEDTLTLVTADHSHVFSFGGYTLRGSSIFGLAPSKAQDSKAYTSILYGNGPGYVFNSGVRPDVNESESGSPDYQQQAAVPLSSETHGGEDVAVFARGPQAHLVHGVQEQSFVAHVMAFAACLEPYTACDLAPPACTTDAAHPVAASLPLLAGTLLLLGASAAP

[6] = biological target: T2, Intestinal-type alkaline phosphatase; test: Competitive inhibition of mouse duodenal-specific FLAG-tagged IAP expressed in African green monkey COS1 cells using p-nitrophenyl phosphate as substrate by double reciprocal plot analysis; assay type: cell-based, COS-1; details: read-out: Ki(app)
[7] = Inhibition of mouse gIAP using p-nitrophenyl phosphate as substrate after 30 mins by chemiluminescence assay
[8] = biological target: Intestinal-type alkaline phosphatase (Mus musculus) (UniProt P24822); details: CHO-K1, 10 uM
Sequence of Intestinal-type alkaline phosphatase (Mus musculus) (P24822 whole entry): as the sequence (P24822 whole entry) above
Description: Inhibition of mouse duodenal-specific IAP expressed in CHOK1 cells at 10 uM by ELF97 staining-based phase contrast microscopic analysis

[9] = biological target: T4, Alkaline phosphatase, germ cell type (Mus musculus, UniProt P24823); test: Inhibition of mouse EAP using p-nitrophenyl phosphate as substrate after 30 mins by chemiluminescence assay
T4 sequence (P24823 whole entry): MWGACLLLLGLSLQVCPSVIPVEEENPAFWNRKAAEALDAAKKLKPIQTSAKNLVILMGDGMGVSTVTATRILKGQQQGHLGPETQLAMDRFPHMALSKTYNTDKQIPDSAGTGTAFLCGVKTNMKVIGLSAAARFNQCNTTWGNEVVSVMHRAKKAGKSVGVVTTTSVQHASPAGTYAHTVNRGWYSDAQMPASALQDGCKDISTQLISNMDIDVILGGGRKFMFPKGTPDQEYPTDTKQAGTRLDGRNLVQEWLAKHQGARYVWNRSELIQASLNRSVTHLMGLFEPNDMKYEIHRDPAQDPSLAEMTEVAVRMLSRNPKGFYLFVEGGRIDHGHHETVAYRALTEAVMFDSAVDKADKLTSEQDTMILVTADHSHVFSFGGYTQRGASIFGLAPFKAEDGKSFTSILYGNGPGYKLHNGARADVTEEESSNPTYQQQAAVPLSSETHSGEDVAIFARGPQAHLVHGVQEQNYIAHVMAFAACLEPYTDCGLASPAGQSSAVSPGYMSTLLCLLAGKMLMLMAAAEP

[10] = biological target: T3, Intestinal-type alkaline phosphatase; test: Inhibition of human FLAG-tagged IAP expressed in African green monkey COS1 cells after 30 mins by chemiluminescence assay; assay type: cell-based, COS-1

Structure (SMILES)	IC50 [1] [µM]	IC50 [2] [µM]	IC50 [3] [µM]	also measured
O=C(CCNS(=O)(=O)c1ccc2[nH]c(=O)oc2c1)NCc1ccc2c(c1)OCO2	> 100	> 100	2.6	–
O=C(CCNS(=O)(=O)c1ccc2[nH]c(=O)oc2c1)NCCc1ccc2c(c1)OCO2	> 100	> 100	19	–
O=C(Nc1ccc2c(c1)OCO2)NS(=O)(=O)c1ccc2[nH]c(=O)oc2c1	> 100	> 100	> 100	–
COc1ccc(CNC(=O)NS(=O)(=O)c2ccc3[nH]c(=O)oc3c2)c(OC)c1	> 100	> 100	89	–
Cc1ccc(C)c(NC(=O)CNS(=O)(=O)c2ccc3[nH]c(=O)oc3c2)c1	35	> 100	0.54	IC50 [4]: 3.8 µM; IC50 [5]: 27.6 µM; Ki [6]: 3.2 µM; IC50 [7]: 21 µM; inhibition [8]: Active; IC50 [9]: 21.1 µM
O=C(CCNS(=O)(=O)c1ccc2[nH]c(=O)oc2c1)NCCCc1ccc2c(c1)OCO2	> 100	> 100	44	–
O=C(NCCc1ccc2c(c1)OCO2)NS(=O)(=O)c1ccc2[nH]c(=O)oc2c1	> 100	> 100	> 100	–
N#Cc1cccc(NC(=O)NS(=O)(=O)c2ccc3[nH]c(=O)oc3c2)c1	> 100	> 100	> 100	–
Cc1ccc(C)c(NC(=O)NS(=O)(=O)c2ccc3[nH]c(=O)oc3c2)c1	> 100	> 100	> 100	–
N#Cc1ccc(NC(=O)NS(=O)(=O)c2ccc3[nH]c(=O)oc3c2)cc1	> 100	> 100	> 100	–
O=C(CNS(=O)(=O)c1ccc2[nH]c(=O)oc2c1)NCCc1ccc2c(c1)OCO2	> 100	> 100	> 100	–
COc1cccc(CNC(=O)NS(=O)(=O)c2ccc3[nH]c(=O)oc3c2)c1	> 100	> 100	40	–
O=C(CCCNS(=O)(=O)c1ccc2[nH]c(=O)oc2c1)NCc1ccc2c(c1)OCO2	> 100	> 100	45	–
COc1ccc(NC(=O)NS(=O)(=O)c2ccc3[nH]c(=O)oc3c2)cc1OC	> 100	> 100	> 100	–
N#Cc1cccc(NC(=O)CCNS(=O)(=O)c2ccc3nc(O)oc3c2)c1	> 100	> 100	1.82	IC50 [10]: > 100 µM
O=C(CCNS(=O)(=O)c1ccc2[nH]c(=O)oc2c1)Nc1ccc2c(c1)OCO2	> 100	> 100	12	–
O=C(CNS(=O)(=O)c1ccc2[nH]c(=O)oc2c1)NCc1ccc2c(c1)OCO2	> 100	> 100	> 100	–
